Results published in PubChem BioAssay AID1918952 (Molecular Pharmacology Branch, DTP, NCI, 2023).

Test system: LG0703-F948-PDC complex spheroid viability
Assay: Anticancer human tumor LG0703-F948-PDC patient-derived lung adenocarcinoma cell line growth inhibition
Details: for IC50: curve of first compound; for viability, T/C: stronger effect = lower value
How it was run: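 Drug combinations with the LSD1 inhibitor iadademstat tested on tumor cells co-cultured as spheroids with endothelial cells and mesenchymal stem cells. Concentrations descended in half-log increments from clinical Cmax or 10 microM.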

[1] = second compound 0.1 µM, first compound 0.000316 µM
[2] = second compound 0.1 µM, first compound 0.001 µM
[3] = second compound 0.1 µM, first compound 0.00316 µM
[4] = second compound 0.1 µM, first compound 0.01 µM
[5] = second compound 0.1 µM, first compound 0.0316 µM
[6] = second compound 0.1 µM, first compound 0.1 µM
[7] = second compound 0.316 µM, first compound 0.000316 µM
[8] = second compound 0.316 µM, first compound 0.001 µM
[9] = second compound 0.316 µM, first compound 0.00316 µM
[10] = second compound 0.316 µM, first compound 0.01 µM
[11] = second compound 0.316 µM, first compound 0.0316 µM
[12] = second compound 0.316 µM, first compound 0.1 µM
[13] = second compound 1 µM, first compound 0.000316 µM
[14] = second compound 1 µM, first compound 0.001 µM
[15] = second compound 1 µM, first compound 0.00316 µM
[16] = second compound 1 µM, first compound 0.01 µM
[17] = second compound 1 µM, first compound 0.0316 µM
[18] = second compound 1 µM, first compound 0.1 µM
[19] = second compound 3.16 µM, first compound 0.000316 µM
[20] = second compound 3.16 µM, first compound 0.001 µM
[21] = second compound 3.16 µM, first compound 0.00316 µM
[22] = second compound 3.16 µM, first compound 0.01 µM
[23] = second compound 3.16 µM, first compound 0.0316 µM
[24] = second compound 3.16 µM, first compound 0.1 µM
[25] = second compound 10 µM, first compound 0.000316 µM
[26] = second compound 10 µM, first compound 0.001 µM
[27] = second compound 10 µM, first compound 0.00316 µM
[28] = second compound 10 µM, first compound 0.01 µM
[29] = second compound 10 µM, first compound 0.0316 µM
[30] = second compound 10 µM, first compound 0.1 µM
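Also: spheroids exposed to agents for seven days before readout.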
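For viability, T/C in this document: 100% = DMSO vehicle control wells as normalization base.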

Row | Compound | IC50 (second compound 0.1 µM) | IC50 (second compound 0.316 µM) | IC50 (second compound 1 µM) | IC50 (second compound 3.16 µM) | IC50 (second compound 10 µM) | viability, T/C [1] | viability, T/C [2] | viability, T/C [3] | viability, T/C [4] | viability, T/C [5] | viability, T/C [6] | viability, T/C [7] | viability, T/C [8] | viability, T/C [9] | viability, T/C [10] | viability, T/C [11] | viability, T/C [12] | viability, T/C [13] | viability, T/C [14] | viability, T/C [15] | further results
1 | CC(C)CC(NC(=O)C(Cc1ccccc1)NC(=O)c1cnccn1)B(O)O (stereo not given) + NC1CCC(NC2CC2c2ccccc2)CC1 | < 0.316 nM | < 0.316 nM | < 0.316 nM | < 0.316 nM | < 0.316 nM | 8.14% | 0.63% | 0.43% | 0.05% | 0.04% | 0.13% | 8.59% | 1.33% | 0.03% | 0.82% | 0.07% | 0.11% | 7.45% | 0.3% | 0.12% | viability, T/C [16]: 0.06%; viability, T/C [17]: 0.02%; viability, T/C [18]: 0.1%; viability, T/C [19]: 5.46%; viability, T/C [20]: 0.14%; viability, T/C [21]: 0.04%; viability, T/C [22]: 0.1%; viability, T/C [23]: 0.03%; viability, T/C [24]: 0.12%; viability, T/C [25]: 1.9%; viability, T/C [26]: 0.49%; viability, T/C [27]: 0.29%; viability, T/C [28]: 0.18%; viability, T/C [29]: 0.13%; viability, T/C [30]: 0.25%
2 | CC(C)CC(NC(=O)CNC(=O)c1cc(Cl)ccc1Cl)B1OC(=O)CC(CC(=O)O)(C(=O)O)O1 (stereo not given) + NC1CCC(NC2CC2c2ccccc2)CC1 | 4.54 nM | 4.94 nM | 4.29 nM | 3.05 nM | 1.98 nM | 118% | 95.6% | 66.7% | 19.8% | 2.45% | 0.73% | 104% | 102% | 69.4% | 19% | 2.48% | 0.54% | 118% | 115% | 60.8% | viability, T/C [16]: 17%; viability, T/C [17]: 2.68%; viability, T/C [18]: 1.21%; viability, T/C [19]: 112%; viability, T/C [20]: 127%; viability, T/C [21]: 47.6%; viability, T/C [22]: 13.8%; viability, T/C [23]: 2.43%; viability, T/C [24]: 0.36%; viability, T/C [25]: 109%; viability, T/C [26]: 97.7%; viability, T/C [27]: 17.4%; viability, T/C [28]: 6.56%; viability, T/C [29]: 0.78%; viability, T/C [30]: 0.48%
